Format in all cases: biochemical
The target in one assay is T1, NEK2 (Homo sapiens, UniProt P51955).
T1 sequence (P51955 1-445): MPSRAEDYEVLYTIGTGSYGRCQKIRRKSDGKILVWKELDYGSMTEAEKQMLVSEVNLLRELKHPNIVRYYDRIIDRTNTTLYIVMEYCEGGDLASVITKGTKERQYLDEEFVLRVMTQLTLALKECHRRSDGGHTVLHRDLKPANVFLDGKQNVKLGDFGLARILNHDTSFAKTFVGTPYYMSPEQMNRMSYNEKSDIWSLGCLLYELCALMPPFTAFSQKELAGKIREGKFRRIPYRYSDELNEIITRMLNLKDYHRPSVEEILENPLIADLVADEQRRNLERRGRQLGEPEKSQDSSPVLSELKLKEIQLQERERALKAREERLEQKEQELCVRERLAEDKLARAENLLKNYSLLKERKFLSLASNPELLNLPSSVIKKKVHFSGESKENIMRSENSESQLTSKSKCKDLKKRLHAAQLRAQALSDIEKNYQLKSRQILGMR
The experiment in a line: kinase inhibition, NEK2.

The target in a further assay is SLK (Homo sapiens, UniProt Q9H2G2). The experiment in a line: kinase inhibition, SLK.
Chain of SLK (Q9H2G2 whole entry): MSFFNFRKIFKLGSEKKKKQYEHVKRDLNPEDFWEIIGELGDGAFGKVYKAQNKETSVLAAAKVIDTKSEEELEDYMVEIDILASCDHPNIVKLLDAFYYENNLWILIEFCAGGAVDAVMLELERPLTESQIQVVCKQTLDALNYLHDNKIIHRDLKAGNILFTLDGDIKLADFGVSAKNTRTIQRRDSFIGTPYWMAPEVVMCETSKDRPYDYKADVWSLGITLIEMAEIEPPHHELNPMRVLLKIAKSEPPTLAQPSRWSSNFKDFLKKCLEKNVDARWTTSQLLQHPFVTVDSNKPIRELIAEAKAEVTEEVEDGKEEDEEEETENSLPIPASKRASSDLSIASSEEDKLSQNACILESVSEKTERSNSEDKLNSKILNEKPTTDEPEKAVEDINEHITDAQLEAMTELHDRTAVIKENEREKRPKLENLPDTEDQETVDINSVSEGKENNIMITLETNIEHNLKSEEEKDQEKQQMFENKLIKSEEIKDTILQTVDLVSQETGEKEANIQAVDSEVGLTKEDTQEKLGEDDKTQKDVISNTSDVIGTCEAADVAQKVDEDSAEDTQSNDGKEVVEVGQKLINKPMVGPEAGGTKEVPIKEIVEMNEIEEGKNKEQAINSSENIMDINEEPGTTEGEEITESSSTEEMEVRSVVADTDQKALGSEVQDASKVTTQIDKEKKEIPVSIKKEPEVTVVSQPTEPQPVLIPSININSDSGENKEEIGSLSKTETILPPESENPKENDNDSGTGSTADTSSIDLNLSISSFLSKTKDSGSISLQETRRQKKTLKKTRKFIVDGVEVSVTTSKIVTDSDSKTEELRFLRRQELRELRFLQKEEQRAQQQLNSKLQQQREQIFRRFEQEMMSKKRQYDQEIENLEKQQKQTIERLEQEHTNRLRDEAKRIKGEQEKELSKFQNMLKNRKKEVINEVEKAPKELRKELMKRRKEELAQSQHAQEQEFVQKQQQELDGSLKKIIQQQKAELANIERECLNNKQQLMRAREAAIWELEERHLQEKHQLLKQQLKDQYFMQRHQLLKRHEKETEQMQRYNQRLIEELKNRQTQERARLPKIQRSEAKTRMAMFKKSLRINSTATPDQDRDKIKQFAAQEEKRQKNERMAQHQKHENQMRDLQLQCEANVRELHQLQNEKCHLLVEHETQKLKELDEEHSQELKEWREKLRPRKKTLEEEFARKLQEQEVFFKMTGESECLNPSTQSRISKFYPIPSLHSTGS
The next assay concerns the target GSK3B (Homo sapiens, UniProt P49841). The experiment in a line: kinase inhibition, GSK3B.
The target of a further assay is T2, AXL (Homo sapiens, UniProt P30530).
T2 sequence (P30530 26-894): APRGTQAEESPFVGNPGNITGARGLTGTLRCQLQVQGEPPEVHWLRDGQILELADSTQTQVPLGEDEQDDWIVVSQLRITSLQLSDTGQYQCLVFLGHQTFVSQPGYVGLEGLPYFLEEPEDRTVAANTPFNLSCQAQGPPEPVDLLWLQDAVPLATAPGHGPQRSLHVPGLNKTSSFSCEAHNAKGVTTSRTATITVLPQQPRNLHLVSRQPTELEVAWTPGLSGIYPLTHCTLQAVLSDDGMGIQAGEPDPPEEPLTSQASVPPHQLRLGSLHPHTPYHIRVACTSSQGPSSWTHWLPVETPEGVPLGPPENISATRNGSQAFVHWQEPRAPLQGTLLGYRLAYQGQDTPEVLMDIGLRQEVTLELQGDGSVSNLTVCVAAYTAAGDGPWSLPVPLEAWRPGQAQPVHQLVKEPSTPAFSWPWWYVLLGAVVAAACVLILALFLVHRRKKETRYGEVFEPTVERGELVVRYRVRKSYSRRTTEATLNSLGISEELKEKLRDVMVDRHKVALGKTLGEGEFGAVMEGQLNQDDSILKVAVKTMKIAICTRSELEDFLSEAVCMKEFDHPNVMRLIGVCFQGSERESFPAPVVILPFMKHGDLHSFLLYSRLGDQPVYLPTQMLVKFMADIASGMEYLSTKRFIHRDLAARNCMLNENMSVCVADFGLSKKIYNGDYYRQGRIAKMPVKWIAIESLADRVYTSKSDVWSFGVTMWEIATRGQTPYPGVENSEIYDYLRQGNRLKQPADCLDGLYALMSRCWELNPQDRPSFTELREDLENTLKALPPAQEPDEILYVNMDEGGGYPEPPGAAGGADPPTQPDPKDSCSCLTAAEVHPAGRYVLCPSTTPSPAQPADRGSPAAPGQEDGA
The experiment in a line: kinase inhibition, AXL.

A further assay deals with RSK1 (Homo sapiens, UniProt Q15418). The experiment in a line: kinase inhibition, RSK1.
Chain of RSK1 (Q15418 whole entry, species assumed): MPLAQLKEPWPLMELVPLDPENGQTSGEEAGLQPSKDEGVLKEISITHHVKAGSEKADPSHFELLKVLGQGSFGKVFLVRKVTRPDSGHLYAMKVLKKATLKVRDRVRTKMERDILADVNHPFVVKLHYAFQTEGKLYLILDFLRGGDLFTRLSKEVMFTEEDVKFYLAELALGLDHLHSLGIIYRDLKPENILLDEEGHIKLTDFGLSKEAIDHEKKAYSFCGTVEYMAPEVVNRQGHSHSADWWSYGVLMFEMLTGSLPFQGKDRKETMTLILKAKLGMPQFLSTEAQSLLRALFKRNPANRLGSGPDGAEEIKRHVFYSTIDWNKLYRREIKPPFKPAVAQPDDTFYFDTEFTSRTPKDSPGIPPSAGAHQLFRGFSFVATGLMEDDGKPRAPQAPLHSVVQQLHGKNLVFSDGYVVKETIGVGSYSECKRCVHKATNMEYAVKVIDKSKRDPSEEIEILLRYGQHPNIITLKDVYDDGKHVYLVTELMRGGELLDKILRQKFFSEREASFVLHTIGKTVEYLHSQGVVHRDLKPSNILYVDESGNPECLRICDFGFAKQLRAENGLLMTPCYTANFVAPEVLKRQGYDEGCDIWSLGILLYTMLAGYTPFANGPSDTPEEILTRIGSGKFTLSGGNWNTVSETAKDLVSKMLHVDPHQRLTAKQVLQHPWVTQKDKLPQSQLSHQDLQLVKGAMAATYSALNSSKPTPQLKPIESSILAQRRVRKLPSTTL
The next assay has as its target CLK. The experiment in a line: kinase inhibition, CLK.
In a further assay the target is T3, DMPK (Homo sapiens, UniProt Q09013).
T3 sequence (Q09013 1-629): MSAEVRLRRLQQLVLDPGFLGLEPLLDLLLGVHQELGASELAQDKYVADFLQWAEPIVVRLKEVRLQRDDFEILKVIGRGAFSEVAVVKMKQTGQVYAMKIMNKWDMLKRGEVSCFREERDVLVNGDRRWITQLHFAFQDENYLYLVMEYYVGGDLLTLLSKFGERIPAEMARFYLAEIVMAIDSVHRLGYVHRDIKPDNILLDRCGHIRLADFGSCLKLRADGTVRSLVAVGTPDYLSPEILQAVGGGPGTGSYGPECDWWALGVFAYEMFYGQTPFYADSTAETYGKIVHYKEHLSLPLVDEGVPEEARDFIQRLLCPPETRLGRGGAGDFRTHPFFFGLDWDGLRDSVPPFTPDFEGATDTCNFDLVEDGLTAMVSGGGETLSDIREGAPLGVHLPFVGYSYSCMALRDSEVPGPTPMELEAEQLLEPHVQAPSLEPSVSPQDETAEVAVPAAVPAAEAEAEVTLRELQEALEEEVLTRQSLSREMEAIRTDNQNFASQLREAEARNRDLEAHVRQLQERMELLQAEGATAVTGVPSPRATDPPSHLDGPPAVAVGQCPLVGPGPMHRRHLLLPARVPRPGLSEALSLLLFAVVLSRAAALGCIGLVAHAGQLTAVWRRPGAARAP
The experiment in a line: kinase inhibition, DMPK.

The values that follow come from patent US11279707B2, “NEK inhibitors and methods of use” (DANA-FARBER CANCER INSTITUTE, INC., priority 2017, dated 2022).

pIC50: −log10 of the molar value.

Chain of GSK3B (P49841 whole entry, species assumed): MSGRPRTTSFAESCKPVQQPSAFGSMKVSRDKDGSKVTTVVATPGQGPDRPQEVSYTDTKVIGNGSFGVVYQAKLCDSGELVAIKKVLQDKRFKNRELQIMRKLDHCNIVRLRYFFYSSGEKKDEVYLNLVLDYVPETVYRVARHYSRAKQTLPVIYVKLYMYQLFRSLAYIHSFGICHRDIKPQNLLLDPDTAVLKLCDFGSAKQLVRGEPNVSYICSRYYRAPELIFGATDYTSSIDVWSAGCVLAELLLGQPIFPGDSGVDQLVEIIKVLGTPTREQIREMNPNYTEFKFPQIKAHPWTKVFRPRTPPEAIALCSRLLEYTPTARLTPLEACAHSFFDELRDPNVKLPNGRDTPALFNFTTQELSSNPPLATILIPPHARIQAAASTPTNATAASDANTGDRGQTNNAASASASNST

A word on the pIC50: it is the negative decadic logarithm of the IC50, by convention in mol/L. Take `CN1CCN(c2ccc(Nc3ncc4c(n3)n3c(cc5ccccc53)c(=O)n4C)cc2)CC1` [Compound I-1]: the negative logarithm of the IC50 (pIC50) against NEK2 was at least 7.30; against SLK, 6.60 to 7.30; on GSK3B, 6.00 to 6.60; on AXL, 6.60 to 7.30; on RSK1, 6.60 to 7.30; on CLK, 6.60 to 7.30. Further, the negative logarithm of the IC50 (pIC50) at DMPK is 6.60 to 7.30.
Consider `COc1cc(N2CCC(O)CC2)ccc1Nc1ncc2c(n1)n1c(cc3ccccc31)c(=O)n2C` [Compound I-2], for which the pIC50 on NEK2 is 6.60 to 7.30; on SLK, 5.30 to 6.00; against GSK3B, 5.30 to 6.00; on AXL, at most 5.30; against RSK1, 5.30 to 6.00; at CLK, 6.00 to 6.60. The pIC50 on DMPK is at most 5.30.
For the compound `COc1cc(N2CCN(C)CC2)ccc1Nc1ncc2c(n1)n1c(cc3ccccc31)c(=O)n2C` [Compound I-3], the pIC50 at NEK2 was 6.60 to 7.30; on SLK, 5.30 to 6.00; at GSK3B, 5.30 to 6.00; against AXL it was at most 5.30; at RSK1, 6.00 to 6.60; against CLK, 5.30 to 6.00. In addition, at DMPK, the pIC50 is at most 5.30.
Consider `COc1cc(C(=O)N2CCC(N3CCN(C)CC3)CC2)ccc1Nc1ncc2c(n1)n1c(cc3ccccc31)c(=O)n2C` [Compound I-4], for which the negative logarithm of the IC50 (pIC50) at NEK2 was 6.60 to 7.30; on SLK, 5.30 to 6.00; against GSK3B, at most 5.30; on AXL, at most 5.30; against RSK1, 6.00 to 6.60; on CLK, 6.60 to 7.30. In addition, the pIC50 at DMPK was 6.00 to 6.60.
Take `CN1CCN(c2ccc(Nc3ncc4c(n3)n3c(cc5ccccc53)c(=O)n4C)cc2C(F)(F)F)CC1` [Compound I-5]: the pIC50 was 6.60 to 7.30 on NEK2; 6.00 to 6.60 on SLK; at most 5.30 against GSK3B; 5.30 to 6.00 on AXL; 5.30 to 6.00 on RSK1; 5.30 to 6.00 at CLK. Moreover, on DMPK, the negative logarithm of the IC50 (pIC50) is at most 5.30.
On to `COc1cc(C2CCN(C)CC2)ccc1Nc1ncc2c(n1)n1c(cc3ccccc31)c(=O)n2C` [Compound I-6], for which the negative logarithm of the IC50 (pIC50) was at least 7.30 against NEK2; 5.30 to 6.00 on SLK; at most 5.30 against GSK3B; 5.30 to 6.00 at AXL; 6.60 to 7.30 against RSK1; 6.60 to 7.30 on CLK. Moreover, on DMPK, the negative-log IC50 (pIC50) was 6.00 to 6.60.
